Calls of active or inactive are those of the source. No cut-off for these calls is given here.

Assay [1] has as its system Trichophyton mentagrophytes. Put plainly: Antifungal activity against Trichophyton mentagrophytes KCTC 6085 at 60 ug/disk after 4 days by paper-disk agar diffusion assay. The format is functional, organism-based.
Assay [2] relates to Trichophyton mentagrophytes. Put plainly: Antifungal activity against Trichophyton mentagrophytes KCTC 6085 at 40 ug/disk after 4 days by paper-disk agar diffusion assay. The note with it: KCTC 6085, 96 h, read-out: IZ. The class given is functional.
Assay [3] relates to Trichophyton mentagrophytes. Put plainly: Antifungal activity against Trichophyton mentagrophytes KCTC 6085 at 20 ug/disk after 4 days by paper-disk agar diffusion assay. The format is functional. The note with it: KCTC 6085, 96 h, read-out: IZ. On the technique in general: A growth-free zone around the sample is the usual read-out of agar diffusion tests.

Turning to `OCC1=CC[C@@H](O)[C@H]2CCC[C@@H]12`, in assay [1], the outcome was inactive.

For `C[C@@H]1[C@H](O)[C@@H](C)/C=C/C=C/C=C/C=C/C=C/C=C/C=C/[C@H](O[C@@H]2O[C@H](C)[C@@H](O)[C@H](N)[C@@H]2O)C[C@@H]2O[C@](O)(C[C@@H](O)C[C@@H](O)[C@H](O)CC[C@@H](O)C[C@@H](O)CC(=O)O[C@H]1C)C[C@H](O)[C@H]2C(=O)O` [AMPHOTERICIN B], the zone of inhibition at 40 µg/disc in assay [2] turned out to be 3 mm. Besides, in assay [3], the zone of inhibition at 20 µg/disc came out at 2.5 mm.

As for `O=CC1=CC[C@@H](O)[C@@H]2CCC[C@H]12` (relative stereo) [ISOTSAOKOIN], the zone of inhibition at 40 µg/disc in assay [2] worked out at 2 mm. In addition, in assay [3], the zone of inhibition at 20 µg/disc worked out at 1.5 mm.

Source of the values: ChEMBL document CHEMBL1151215, “Isotsaokoin, an antifungal agent from Amomum tsao-ko” (2004).
